Consider 1 molecule from paper PMC9369419 (International Journal of Molecular Sciences, 2022).

The target in assay [1] is T1, GluK5 (Rattus norvegicus, UniProt Q63273).
T1 construct: made in house; host or cells: Sf9 insect cells (membranes)
T1 sequence (Q63273 15-979): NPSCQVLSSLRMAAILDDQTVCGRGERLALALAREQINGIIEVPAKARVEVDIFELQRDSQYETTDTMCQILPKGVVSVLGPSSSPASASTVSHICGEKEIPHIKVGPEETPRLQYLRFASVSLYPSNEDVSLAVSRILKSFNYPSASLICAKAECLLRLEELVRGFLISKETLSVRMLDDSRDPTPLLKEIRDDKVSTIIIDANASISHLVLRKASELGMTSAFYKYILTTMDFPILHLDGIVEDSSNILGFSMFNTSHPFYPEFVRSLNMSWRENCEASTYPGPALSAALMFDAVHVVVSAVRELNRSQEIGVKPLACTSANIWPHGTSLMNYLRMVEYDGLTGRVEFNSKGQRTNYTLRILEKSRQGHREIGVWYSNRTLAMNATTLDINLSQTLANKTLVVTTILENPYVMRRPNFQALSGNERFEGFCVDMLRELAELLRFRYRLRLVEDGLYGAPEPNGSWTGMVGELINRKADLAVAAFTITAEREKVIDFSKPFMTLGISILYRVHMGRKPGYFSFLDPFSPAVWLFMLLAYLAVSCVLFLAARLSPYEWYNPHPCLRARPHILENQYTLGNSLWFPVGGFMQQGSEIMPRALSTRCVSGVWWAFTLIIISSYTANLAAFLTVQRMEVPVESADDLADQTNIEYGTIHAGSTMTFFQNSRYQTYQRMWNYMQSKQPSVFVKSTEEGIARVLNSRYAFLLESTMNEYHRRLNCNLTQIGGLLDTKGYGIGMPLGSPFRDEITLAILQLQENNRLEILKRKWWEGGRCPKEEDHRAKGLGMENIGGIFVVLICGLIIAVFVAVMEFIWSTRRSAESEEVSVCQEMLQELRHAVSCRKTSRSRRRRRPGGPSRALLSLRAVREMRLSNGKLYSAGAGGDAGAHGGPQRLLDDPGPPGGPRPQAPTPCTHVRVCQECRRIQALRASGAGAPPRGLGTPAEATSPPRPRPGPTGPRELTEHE
In words: Radioligand binding at recombinant homomeric GluK5 in Sf9 membranes. Conditions: recombinant rat homomeric receptor, [3H]-kainic acid, mean ± SEM. The protocol: Ligand binding affinities at recombinant rat homomeric GluA2, GluK1−3, and GluK5 were determined as previously detailed. […] The filters were dried at 70 °C for 1 h, and 50 μL/well Microscint 20 (PerkinElmer, Waltham, MA, USA) was added. Radioactivity was detected with a TopCounter (PerkinElmer, Waltham, MA, USA). GluA2 and GluK5 assays were filtered on GF/C type filters using Millipore 12-well filtration manifolds (Merck Life Science, Søborg, Denmark) and washed twice with ice-cold assay buffer. Filters were placed in pony vials (PerkinElmer, Waltham, MA, USA), 3 mL of Ultima Gold scintillation fluid (PerkinElmer, Waltham, MA, USA) was added, and DPM (disintegrations per minute) were determined using a TriCarb 2900 scintillation counter (PerkinElmer, Waltham, MA, USA).
All competition curves (n ≥ 3 per ligand) were determined in triplicate. Data were analyzed using GraphPad Prism 6 (GraphPad Software, San Diego, CA, USA) to determine ligand affinity (Ki) and Hill coefficient (nH) using the one-site Ki and four-parameter logistics equations, respectively.

The target in assay [2] is T2, human mGluR5 (Homo sapiens, UniProt P41594).
T2 construct: Flag; expressed in transfected cells; host or cells: HEK293A (transient, Lipofectamine 2000)
In words: mGluR5 functional assay (IP1 accumulation, HEK293A cells). Format: cell-based. Conditions: 0.1 mM compound. An excerpt: Dulbecco’s modified Eagle medium (DMEM), dialyzed fetal bovine serum (FBS), Opti-MEM, penicillin-streptomycin, Dulbecco’s phosphate-buffered saline (DPBS), Hank’s balanced salt solution (HBSS) and Lipofectamine 2000 were purchased from Thermo Fisher Scientific (Waltham, MA, USA). An IP-One Gq kit was purchased from Cisbio (Codolet, France). Quisqualate and poly-D-lysine (PDL) hydrobromide were purchased from Sigma-Aldrich (St. Louis, MO, USA). Falcon clear, tissue culture-treated 96-well plates were from Corning Inc. (Corning, NY, USA). OptiPlate-384 white, opaque 384-well plates were from PerkinElmer, (Waltham, MA, USA). L-AP4 and LY341495 were purchased from Tocris Bioscience (Bristol, UK). The HEK293A cells were a kind gift from Dr. Asuka Inoue (Tohoku University, Sendai, Japan). Plasmids encoding human mGluR4 and Flag-tagged human mGluR5 were kind gifts from Jesper M. Mathiesen (University of Copenhagen, København, Denmark). […]
Cell culture and IP1 Assay. […] IP1 accumulation was measured on an EnVision 2104 Multilabel Reader using a 340/60 nm excitation filter and 615/8.5 nm (donor) and 665/7.5 nm (acceptor) emission filters. HTRF ratios were calculated as the ratio of acceptor over donor emission (665 nm/615 nm) and converted to IP1 concentrations with an IP1 standard curve according to the instructions from the kit manufacturer.

Molecules are shown by their SMILES.

T2 sequence (P41594 21-1212): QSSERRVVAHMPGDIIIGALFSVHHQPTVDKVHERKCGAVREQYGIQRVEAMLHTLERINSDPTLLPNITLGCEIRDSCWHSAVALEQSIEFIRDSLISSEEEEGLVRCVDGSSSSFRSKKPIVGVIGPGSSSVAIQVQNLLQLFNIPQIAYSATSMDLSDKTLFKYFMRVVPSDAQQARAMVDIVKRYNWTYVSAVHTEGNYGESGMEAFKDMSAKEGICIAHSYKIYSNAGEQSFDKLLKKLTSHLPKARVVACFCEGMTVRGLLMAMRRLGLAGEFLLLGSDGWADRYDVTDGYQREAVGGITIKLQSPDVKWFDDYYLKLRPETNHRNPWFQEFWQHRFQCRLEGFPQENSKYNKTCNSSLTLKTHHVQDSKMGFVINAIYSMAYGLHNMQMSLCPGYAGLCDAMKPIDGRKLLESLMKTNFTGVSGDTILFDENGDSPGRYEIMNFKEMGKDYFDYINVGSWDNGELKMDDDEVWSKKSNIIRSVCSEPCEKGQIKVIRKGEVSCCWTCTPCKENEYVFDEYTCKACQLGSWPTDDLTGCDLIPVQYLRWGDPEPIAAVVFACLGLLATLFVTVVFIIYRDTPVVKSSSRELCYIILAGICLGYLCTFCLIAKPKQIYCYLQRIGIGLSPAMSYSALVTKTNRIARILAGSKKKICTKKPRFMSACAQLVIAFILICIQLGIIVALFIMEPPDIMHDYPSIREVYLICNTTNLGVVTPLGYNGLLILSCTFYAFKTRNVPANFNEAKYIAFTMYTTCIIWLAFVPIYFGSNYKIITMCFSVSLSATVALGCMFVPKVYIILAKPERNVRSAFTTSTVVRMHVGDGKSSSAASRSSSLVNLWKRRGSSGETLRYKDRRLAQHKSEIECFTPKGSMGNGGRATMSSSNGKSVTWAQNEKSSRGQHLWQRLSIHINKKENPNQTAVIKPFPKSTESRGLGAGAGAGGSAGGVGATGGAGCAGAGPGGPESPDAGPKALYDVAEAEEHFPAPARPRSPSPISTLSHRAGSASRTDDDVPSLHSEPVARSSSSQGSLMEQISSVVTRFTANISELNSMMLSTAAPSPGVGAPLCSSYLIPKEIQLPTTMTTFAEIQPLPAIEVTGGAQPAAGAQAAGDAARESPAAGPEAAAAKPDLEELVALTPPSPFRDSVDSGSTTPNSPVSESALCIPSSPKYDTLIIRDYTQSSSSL

For the molecule `O=C(Nn1c(=O)c(=O)[nH]c2cc(C#Cc3cnc4cccnn34)ccc21)c1ccccc1` [Compound 28], the Ki – broadly, a dissociation constant, usually derived from enzyme kinetics or from competition with a known ligand – in assay [1] was greater than 100 µM. In assay [2], the “agonist or antagonist activity at mGluR5” value was “neither agonistic nor antagonistic”.
